From patent publication US10214762B2, “Cell differentiation devices and methods” (GEORGIA TECH RESEARCH CORPORATION, priority 2014, dated 2019)

Assays:
[1] = tested on: E. Coli strain (ATCC 43888); assay: three-channel, six-chamber microfluidic chemotaxis assay; assay type: cell-based, Escherichia coli
Method: PBS, Tris and LB were autoclaved before use. E Coli strain (ATCC 43888) was obtained from Fisher Scientific (Pittsburgh, Pa.). All cultures were grown in 10 mL of LB incubated at 37° C. for approximately 4 hours until the optical density of sample at wavelength of 600 nm reached 0.8. Optical density at 600 nm was measured for cell culture quantification.
An exemplary device described and depicted herein consists of a center channel that delivers a bacteria sample from a small reservoir to the central interaction region, where the channel is perpendicularly connected to six chambers. […] These channels serve as a source for generating a chemical gradient in the chambers. A nitrocellulose membrane (Millipore type GSTF) with a 0.22 μm pore size serves as a porous medium that separates the side channels from the chambers while allowing chemicals to diffuse through to the chambers. The pore size of 0.22 μm was selected as an exemplary pore size to ensure chemical axial flow through the porous nitrocellulose substrate, while prohibiting the passage of the cells or analyte to be analyzed through the porous substrate. Other pore sizes may be utilized depending on the type of assay and cells or analyte to be analyzed are contemplated herein.
The same volume of buffer saline was taken back through the filter into the syringe; suspending the cells in the buffer saline medium. This process was repeated three times to ensure the complete exchange of growth medium with buffer saline. The bacterial motility was not affected.
The microfluidic device was prepared as follow. The top glass assembly was properly cleaned and reused for many experiments, while the membrane and the bottom glass were renewed for each experiment. Acetone, isopropanol, and DI water were used to effectively clean the top glass and reservoirs. The membrane layer was soaked entirely in buffer solution for 30 min before use to ensure the removal of all air bubbles. The soaked membrane was then aligned with the inlet/outlet ports on the top glass and sandwiched between the top glass and another glass slide using 6 small stainless steel clips that provide constant and consistent pressure over the entire membrane area, as shown in FIG. 3.
After the device assembly, the input reservoirs were filled with buffer and the output reservoirs were vacuumed for a few seconds, the strong resulting flow expels all possible bubbles from the microfluidic system. The channels were inspected under microscope before conducting tests. All the experiments were conducted at least for three times to determine reproducibility. The bacterial chemotaxis experiments were conducted at an ambient temperature of 36° C.
Chemotactic response of cells to a chemical gradient was tested in another set of experiments. […]

E Coli [2] = settings: about 20 mM aspartic acid; cited from earlier work
[3] = capillary assay; cited from earlier work
E Coli [4] = settings: agarose gel diffusive medium; cited from earlier work

| SMILES | ratio of bacteria count in the buffer chambers to the repellent side chambers ([1]; 0.5 mM NiCl2 as repellent, Tris Buffered Saline) | motility of the cells after introducing the repellent ([1]; due to an increase in tumbling frequency) | chemotaxis index (IC) ([1]; 0.5 mM aspartic acid in PBS buffer as attractant, cells in attractant chambers vs buffer side chambers, about 30 min) | aspartic acid concentration giving a more significant chemotactic response ([1]; different aspartic acid concentrations tried) [mM] | chemotactic index (peak response) (E Coli [2]) | peak concentration for chemotaxis [3] | concentration generating the maximum chemotactic response (E Coli [4]) [mM] |
| --- | --- | --- | --- | --- | --- | --- | --- |
| [Cl][Ni][Cl] [NiCl2, nickel chloride] | more than 8 times | reduced to some degree |  |  |  |  |  |
| N[C@@H](CC(=O)O)C(=O)O [aspartic acid, L-aspartic acid] |  |  | 4 | 0.5 | 1.74 | about 10 mM | 0.5 |
